# Data taken from patent publication US9604974B2, “Compounds as modulator of JAK-STAT pathway, methods and applications thereof” (UNIVERSITY OF MYSORE, priority 2015, dated 2017).
# Test system: HepG2 cells
# Assay: MTT anti-proliferative assay, HepG2
# Format: cell-based
# Conditions: Homo sapiens; HepG2 cells after 72 hours, MTT
# Description: The anti-proliferative activity of Formula I compounds are studied on HepG2 cells using MTT assay. Briefly, the cells (2.5×10^4/ml) are incubated in triplicate in a 96-well plate in the presence or absence of different concentrations of compounds in a final volume of 0.2 ml up to 72 hours at 37° C. Thereafter, 20 μl MTT solution (5 mg/ml in PBS) is added to each well. After 2 hours of incubation at 37° C., 0.1 ml lysis buffer (20% SDS, 50% dimethyl-formamide) is added; incubation is continued overnight at 37° C.; and the optical density (OD) at 570 nm is measured by Tecan plate reader.
row,Molecule,IC50
1,"COc1ccc(C2CNC(c3c(-c4ccccc4)[nH]c4ccccc34)OC23CCCCC3)cc1 (stereo not drawn) [Compound 5, 2-(2-phenylindyl)-5-(4-methoxy-phenyl)-1-oxa-3-aza spiro(5,5) undecane]",9.8 µM
2,COc1ccc(C2CN(Cc3ccc(-c4ccccc4C#N)cc3)C(c3c(Cl)cccc3Cl)OC23CCCCC3)cc1 (stereo not drawn) [Compound 12],> 50 µM
3,"COc1ccc(C2CNC(c3c(C)[nH]c4ccccc34)OC23CCCCC3)cc1 (stereo not drawn) [Compound 9, 2-(2-methylindyl)-5-(4-methoxy-phenyl)-1-oxa-3-aza spiro(5,5) undecane]",> 50 µM
4,"CCCCc1nc(Cl)c(C2NCC(c3ccc(OC)cc3)C3(CCCCC3)O2)[nH]1 (stereo not drawn) [Compound 2, 2-(2-butyl-5-chloro-3H-imidazol-4-yl)-5-(4-methoxy-phenyl)-1-oxa-3-aza spiro(5,5) undecane]",38.7 µM

# Further lines, results first:
row,IC50,Molecule
1,> 50 µM,"COc1ccc(C2CNC(c3ccc(N(C)C)cc3)OC23CCCCC3)cc1 (stereo not drawn) [Compound 13, 2-(4-dimethylaminophenyl)-5-(4-methoxy-phenyl)-1-oxa-3-aza spiro(5,5) undecane]"
2,14.3 µM,"CCCCc1nc(Cl)c(C2NCC(c3ccc(OC)cc3)C3(CCCCC3)O2)n1Cc1ccc(-c2ccccc2C#N)cc1 (stereo not drawn) [Compound 3, 2-(2-butyl-5-chloro-3-(4-(2-cyanophenyl)1-benzyl)-imidazol-4-yl)-5-(4-methoxy-phenyl)-1-oxa-3-aza spiro(5,5) undecane]"
3,> 50 µM,"COc1ccc(C2CNC(c3ccc4c(c3)CCO4)OC23CCCCC3)cc1 (stereo not drawn) [Compound 11, 2-(2,3-Dihydro-benzofuran-5-yl)-5-(4-methoxy-phenyl)-1-oxa-3-aza-spiro[5.5]undecane]"
4,42.4 µM,"COc1ccc(C2CNC(c3c(Cl)cccc3Cl)OC23CCCCC3)cc1 (stereo not drawn) [Compound 10, 2-(2,6-dichlorophenyl)-5-(4-methoxy-phenyl)-1-oxa-3-aza spiro(5,5) undecane]"
5,28.8 µM,"COc1ccc(C2CNC(c3coc4ccccc4c3=O)OC23CCCCC3)cc1 (stereo not drawn) [Compound 8, 3-[5-(4-Methoxy-phenyl)-1-oxa-3-aza-spiro[5.5]undec-2-yl]-chromen-4-one]"
6,37.1 µM,"COc1ccc(C2CNC(c3ccc(Br)cc3)OC23CCCCC3)cc1 (stereo not drawn) [Compound 4, 2-(4-Bromophenyl)-5-(4-methoxy-phenyl)-1-oxa-3-aza spiro(5,5) undecane]"
7,28.5 µM,"COc1ccc(C2CNC(c3c[nH]c4ccccc34)OC23CCCCC3)cc1 (stereo not drawn) [Compound 6, 2-(indyl)-5-(4-methoxy-phenyl)-1-oxa-3-aza spiro(5,5) undecane]"
8,15.8 µM,CCCCc1nc(Cl)c(C2NCC(c3ccc(OC)cc3)C3(CCCCC3)O2)n1Cc1ccc(Oc2ccccc2)cc1 (stereo not drawn) [Compound 7]

# Test system: phospho-STAT3 (Y705)
# Assay: Western blot of constitutive phospho-STAT3 (Y705) in HepG2
# Format: cell-based, human
# Conditions: HepG2, 6 hours
# Description: FIG. 2 depicts the suppression of phospho-STAT3 by compound 1 (CIMO) in a dose dependent manner [A]. HepG2 cells (5×10^5/mL) are treated with the indicated concentrations of CIMO for 6 hours, after which whole-cell extracts are prepared and resolved on SDS-PAGE gel, electrotransferred onto nitrocellulose membrane, and probed for phospho-STAT3. The same blot is stripped and reprobed with STAT3 antibody to verify equal protein loading. […] HepG2 cells (5×10^5/mL) are treated with the indicated concentrations of AG490 for about 6 hours, after which Western Blotting is done as described for [A]. [C] depicts the suppression of phospho-STAT3 levels by Compound 1 (CIMO) in a time-dependent manner. HepG2 cells (5×10^5/mL) are treated with 10 μMol/L CIMO for the indicated times, after which Western blotting is done as described for [A]. [D] depicts that compound 1 (CIMO) has no effect on phospho-STAT3 (Ser-727) and STAT3 protein expression. HepG2 cells (5×10^5/mL) are treated with 10 μMol/L CIMO for the indicated times, after which Western Blotting is done as described for [A] and membrane is probed using antibodies against phospho-STAT3 (Ser-727) and STAT3. […] HepG2 cells (1×10^5/mL) are incubated with or without 10 μMol/L CIMO for about 6 hours and then analyzed for the intracellular distribution of STAT3 by immunocytochemistry. The same slides are counterstained for nuclei with Hoechst (50 ng/mL) for about 5 minutes and analyzed under an fluorescencemicroscope. […] HepG2 cells (5×10^5/mL) are treated with 10 μMol/L CIMO, after which whole-cell extracts are prepared, resolved in SDS-PAGE, electrotransferred onto nitrocellulose membrane, and probed with phospho-Src, phospho-JAK1 and phospho-JAK2 antibodies. The same blots are stripped and reprobed with Src, JAK1 and JAK2 antibodies to verify equal protein loading. [G] depicts the suppression of STAT3 DNA binding ability by Compound 1 (CIMO) in HepG2 cells. HepG2 cells are treated with 10 μMol/L CIMO for the indicated time, nuclear extracts are prepared, and 5 μg of the nuclear extract protein is used for ELISA-based DNA-binding assay.
# CIMO is tested towards the inhibition of constitutive activation of STAT3 in HepG2 cells by Western Blotting via antibodies recognising phospho-STAT3 (Y705). For detection of phospho-proteins, CIMO treated whole-cell extracts are lysed in lysis buffer [20 mM Tris (pH 7.4), 250 mM NaCl, 2 mM Ethylenediaminetetraacetic acid (pH 8.0), 0.1% Triton-X-100, 0.01 mg/ml aprotinin, 0.005 mg/ml leupeptin, 0.4 mM phenylmethanesulfonylfluoride, and 4 mM NaVO4). Lysates are then spun at 14,000 rpm for about 10 minutes to remove insoluble material and resolved on SDS gel. After electrophoresis, the proteins are electrotransferred to a nitrocellulose membrane, blocked with 5% non-fat milk, and probed with various antibodies (1:1000) overnight at about 4° C. The blot is washed, exposed to HRP-conjugated secondary antibodies for about 1 hour, and finally examined by chemiluminescence (ECL; GE Healthcare, Little Chalfont, Buckinghamshire, UK).
row,Molecule,concentration of maximum inhibition of phospho-STAT3
1,"N#C/C(=C/c1ccc(O)c(O)c1)C(=O)NCc1ccccc1 [AG490, reference compound]",200 µM

# Same assay, conditions: HepG2, Western blot, dose and time course
row,Molecule,levels of phospho-STAT3 (Y705)
1,"N#C/C(=C/c1ccc(O)c(O)c1)C(=O)NCc1ccccc1 [AG490, reference compound]",decreases the phosphorylation of STAT3 in a dose-dependent manner

# Same assay, conditions: HepG2, with 10 μMol/L CIMO, about 4 hours
row,Molecule,effect on CIMO-induced inhibition of STAT3 activation
1,sodium pervanadate [reference compound],prevents CIMO-induced inhibition of STAT3 activation
